Experimental data reported in publication PMC11350809, “Targeting N-Acetylglucosaminidase in Staphylococcus aureus with Iminosugar Inhibitors” (Antibiotics, 2024).
In brackets after ≈: the same amount, converted by molar mass. Entries after “also recorded” stand apart in the source; their conditions may differ. Where two headings read alike, the source gives them in different places.

Legend:
naringinase (Nar) = conditions: cited from earlier work
autolysin E (AtlE) = autolysin E (AtlE) (Staphylococcus aureus, UniProt A0A0H3JT72); experiment: Surface plasmon resonance (SPR) binding to immobilized AtlE; conditions: for maximal SPR response compared with the maximal theoretical response: theoretical response calculated from molecular masses of AtlE and compound, surfactant P20 in running buffer
Sequence of autolysin E (AtlE) (A0A0H3JT72 entry or part of it): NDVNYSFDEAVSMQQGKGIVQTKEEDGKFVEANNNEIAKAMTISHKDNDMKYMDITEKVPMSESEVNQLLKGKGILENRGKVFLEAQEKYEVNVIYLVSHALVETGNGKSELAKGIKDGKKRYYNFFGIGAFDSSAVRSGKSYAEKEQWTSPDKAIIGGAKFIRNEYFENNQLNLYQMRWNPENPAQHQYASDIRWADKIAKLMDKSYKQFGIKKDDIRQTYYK
Protocol: The potential inhibitory effect of compounds that bind to AtlE was measured using surface plasmon resonance (SPR). The protein was covalently attached to the surface of the CM5 sensor chip (5200 response units (RU)). The compounds were prepared as 20 mM stock solutions in DMSO and diluted with HEPES running buffer with 2.5% DMSO. Some compounds were less soluble, which was also predicted by the in silico programs and QSAR models for aqueous solubility (see Supplementary Table S3).
The binding of iminosugars was recorded and analyzed using the Biacore T200 3.2.1 software v3.2.1 Evaluation (for results, see Table 1). […] Therefore, for further testing of AtlE binding, the iminosugar derivatives with a lipophilic tail were chosen (1,5-dideoxy-1,5-imino-D-xylitol derivatives (DIX)).
Three compounds, 1, 3 and 8, were identified as AtlE binders. Two of them, 1 and 3, were titrated at eight different concentrations, while compound 8 was titrated firstly at six different concentrations (Figure 4a) and secondly at seven concentrations (Figure S2). The equilibrium dissociation constant KD was estimated using the 1:1 steady-state affinity binding model, with the graphs showing the response units as a function of inhibitor concentration (Figure 4b). […] The maximal theoretical response was calculated using the molecular masses of AtlE and the compounds, respectively. […] Due to the amphiphilicity of the compounds with a hydrophilic sugar unit in the head and a hydrophobic fatty acid residue in the tail, we can assume that both compounds can form oligomeric micelles. To prevent the formation of micelles, we added a surfactant P20 to the running buffer, but the maximum theoretical binding to AtlE was not reached for compounds 1 and 3. This brings into question the true nature of their binding and should be verified by another independent method.
Figure 4 (a) Representative SPR sensorgrams (response curves) and (b) representative saturation curves with evaluated KD for compounds 1, 3 and 8 at different concentrations. SPR analysis of compound 1, 3 and 8 interactions with the immobilized AtlE. Compounds were injected across immobilized AtlE in serial dilutions for 60 s at a rate of […], and the dissociation was followed for 50 s. Sensorgrams are shown along with the apparent equilibrium dissociation constant (KD) determined from the response curves as a function of the compound concentration injected across AtlE. KD values are the mean ± standard deviation of three titrations. The data were fitted to the steady-state affinity binding model.
Surface plasmon resonance (SPR) experiments were performed at 25 °C using a Biacore T200 (Biacore, GE Healthcare, Uppsala, Sweden) instrument with Series S sensor chip CM5 (GE Healthcare). […]

[1] = molecular target: α-Galactosidase (from green coffee beans); conditions: cited from earlier work
S. aureus (ATCC 29213) = experiment: Minimal inhibitory concentration, broth microdilution; type: cell-based, Staphylococcus aureus; conditions: for MIC: Staphylococcus aureus, ATCC29213, broth microdilution, 20 h at 35 °C, read-out: MIC S. aureus ATCC29213
Protocol: (§1) The minimal inhibitory concentrations (MICs) were determined against the bacterial strains S. aureus (ATCC 29213) and E. coli (ATCC 25922), and the results are presented in Table S6.
(§2) Antimicrobial testing was carried out by the broth microdilution method in a 96-well plate format following the CLSI guidelines and European Committee for Antimicrobial Susceptibility Testing (EUCAST) recommendations. Bacterial suspension of a specific bacterial strain equivalent to 0.5 McFarland turbidity standard was diluted with cation-adjusted Mueller Hinton broth to obtain a final inoculum of 10^5 CFU/mL. Compounds dissolved in 20% DMSO and inoculum were mixed together and incubated for 20 h at 35 °C. After incubation, the minimal inhibitory concentration (MIC) values were determined by visual inspection as the lowest dilution of compounds showing no turbidity. The MICs were determined against S. aureus (ATCC 29213) and E. coli (ATCC 25922) bacterial strains. Tetracycline was used as a positive control on every assay plate, showing MICs of 0.5 µg/mL and 1 µg/mL for S. aureus and E. coli, respectively.

[2] = molecular target: β-galactocerebrosidase (GALC); conditions: cited from earlier work
[3] = molecular target: β-Galactosidase (from bovine liver); conditions: cited from earlier work
E. coli (ATCC 25922) = experiment: Minimal inhibitory concentration, broth microdilution (negative control strain); type: cell-based; conditions: Escherichia coli, ATCC25922; broth microdilution, 20 h at 35 °C; read-out: MIC E. coli ATCC25922
Protocol: as §1, §2

[4] = molecular target: human recombinant β-glucocerebrosidase (GBA); conditions: cited from earlier work
[5] = molecular target: β-Glucosidase (from almond); conditions: cited from earlier work
[6] = molecular target: α-Glucosidase (from baker's yeast); conditions: cited from earlier work
[7] = pH 6.8, p-nitrophenyl-a-d-galactopyranoside, footnote **
[8] = pH 5.2, footnote **, read-out: IC50 GBA pH 5.2
[9] = pH 7.0, footnote **, read-out: IC50 GBA pH 7.0
[10] = pH 5.0, p-nitrophenyl-b-d-glucopyranoside, footnote **
[11] = pH 7.2, p-nitrophenyl-a-d-glucopyranoside, footnote **

| Compound | IC50 (naringinase (Nar); footnote **) [µM] | maximal SPR response compared with the maximal theoretical response (autolysin E (AtlE)) | IC50 [1, 7] [µM] | MIC (S. aureus (ATCC 29213)) [µM] | IC50 ([2]; footnote **) [µM] | IC50 ([3]; footnote **) [µM] | MIC (E. coli (ATCC 25922)) [µM] | IC50 human recombinant β-glucocerebrosidase ([4]; in words) | IC50 [4, 8] [µM] | IC50 [4, 9] [µM] | IC50 [5, 10] [µM] | IC50 [6, 11] [µM] | other results |
| --- | --- | --- | --- | --- | --- | --- | --- | --- | --- | --- | --- | --- | --- |
| CCCCCCCCCCNC(=N)N1CC(O)C(O)C(O)C1 (stereo not drawn) [Compound 3] | 41.5 ± 0.2 | higher maximal response than expected; also recorded: higher than expected maximum response | > 100 | 500 (≈ 158 µg/mL) | > 10 | 2.7 ± 0.2 | > 500 | low nanomolar range | 0.09 ± 0.01 | 0.03 ± 0.01 | 26 ± 0.9 | > 100 |  |
| CCCCCCCCCCNC(=O)N1CC(O)C(O)C(O)C1 (stereo not drawn) [Compound 8] | > 100 | achieved the expected maximal theoretical response; also recorded: expected maximum theoretical response was not exceeded | > 100 | > 500 | > 10 | 10.4 ± 0.9 | > 500 |  | > 10 | > 10 | > 100 | > 100 | inhibitor of β-glucocerebrosidase ([4]; in words, previous studies): not as an inhibitor of β-glucocerebrosidase; binding of human recombinant β-glucocerebrosidase ([4]; in words): no binding of this enzyme was observed |
| OC[C@H]1NC[C@H](O)[C@@H](O)[C@@H]1O [1-deoxynojirimycin, reference compound] |  |  |  |  |  |  |  |  |  |  |  |  | binding of AtlE (SPR) (autolysin E (AtlE); tested at 100 µM and 1 mM): no binding of AtlE; also recorded: did not inhibit AtlE |
| CCCCCCCCCCCCCCN=C1OCC2C(O)C(O)C(O)CN12 (stereo not drawn) [Compound 1] |  | higher maximal response than expected; also recorded: higher than expected maximum response |  | 8 (≈ 3.08 µg/mL) |  |  | 125 (≈ 48.1 µg/mL) | low nanomolar range |  |  |  |  | IC50 (naringinase (Nar); footnote *): 0.2 ± 0.01 µM; IC50 ([1]; pH 6.8, p-nitrophenyl-α-D-galactopyranoside, footnote *): > 100 µM; antibacterial activity against S. aureus ATCC 29213 (S. aureus (ATCC 29213); in words): modest antibacterial activities; IC50 ([2]; footnote *): > 10 µM; IC50 ([3]; footnote *): 0.1 ± 0.03 µM; IC50 ([4]; pH 5.2, footnote *, read-out: IC50 GBA pH 5.2): 0.02 ± 0.001 µM; IC50 ([4]; pH 7.0, footnote *, read-out: IC50 GBA pH 7.0): 0.001 ± 0.001 µM; IC50 ([5]; pH 5.0, p-nitrophenyl-β-D-glucopyranoside, footnote *): 0.7 ± 0.03 µM; IC50 ([6]; pH 7.2, p-nitrophenyl-α-D-glucopyranoside, footnote *): > 100 µM |
